For experiment [1], the target named is H44R yeast alcohol dehydrogenase. The following applies: read-out: Ki, CF3CH2OH; pH 7.3, 30 °C, 83 mM potassium phosphate, 40 mM KCl; cited from earlier work.
Experiment [2] deals with H48Q yeast alcohol dehydrogenase. The note with it: read-out: Ki, CF3CH2OH; pH 7.3, 30 °C, 83 mM potassium phosphate, 40 mM KCl; cited from earlier work.
The target in experiment [3] is wild-type yeast alcohol dehydrogenase. The note with it: read-out: Ki, CF3CH2OH; pH 7.3, 30 °C, 83 mM potassium phosphate, 40 mM KCl; cited from earlier work.
The target of experiment [4] is H44R/H48Q yeast alcohol dehydrogenase (Saccharomyces cerevisiae, UniProt P00330, H45R/H49Q). Kind of experiment: biochemical.

In PMC11090211 (Chemico-biological interactions, 2024) one finds Ki data, which are given here for 1 molecule.

Sequence of H44R/H48Q yeast alcohol dehydrogenase (P00330 2-348 H45R/H49Q): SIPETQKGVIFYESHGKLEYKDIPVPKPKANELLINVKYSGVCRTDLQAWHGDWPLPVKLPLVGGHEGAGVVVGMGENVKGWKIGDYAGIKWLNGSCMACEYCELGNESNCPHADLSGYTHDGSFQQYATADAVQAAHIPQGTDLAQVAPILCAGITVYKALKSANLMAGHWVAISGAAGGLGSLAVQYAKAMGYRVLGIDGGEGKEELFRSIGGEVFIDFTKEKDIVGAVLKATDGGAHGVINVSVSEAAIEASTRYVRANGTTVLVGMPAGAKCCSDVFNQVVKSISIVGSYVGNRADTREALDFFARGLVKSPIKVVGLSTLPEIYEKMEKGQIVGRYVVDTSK

Regarding `OCC(F)(F)F` [CF3CH2OH, 2,2,2-trifluoroethanol, reference compound], the inhibitory constant (Ki) (usually the equilibrium dissociation constant of an inhibitor or competing ligand from its target) is 19 mM in experiment [1], 33 mM in experiment [2], 2.5 mM in experiment [3] and 55 mM in experiment [4].
